Source: US20100004171A1, “Therapeutic Methods for Neuropathic Pain” (priority 2006, published 2010)
Where no end group is shown, it is not given here.

Tests used:
[1] = system: NMDA receptors; details: cited from earlier work; for effect on hyperalgesia and allodynia: given systemically and locally; for doses at which the effects are seen: reported by some researchers
[2] = Solubility for intrathecal injection; type: physicochemical
Description: (§1) The maximum volume injected at any one time was 10 μl.^[79]

[3] = system: transitory inflammatory-induced hyperalgesia; details: pain model with transitory inflammatory-induced hyperalgesia; cited from earlier work
[4] = system: tactile allodynia in allodynic rats; experiment: Tactile allodynia test (von Frey filaments, paw withdrawal threshold) in CCI (Bennett model) rats; type: in vivo, rat; details: for effect on paw-withdrawal threshold: intrathecal 100 nmol in 10 μl in allodynic rats, day 7 after injury, up to 8 hr
Source text: Bennett Model: In this model, approximately 0.8 cm of the left sciatic nerve was exposed and freed with sharpened scissors at middle-thigh level as described by Bennett and Xie.^[76] Four ligatures were placed loosely around the sciatic nerve with 4-0 chromic catgut, with 1 mm space between the ties, which compresses the nerve but epineural blood circulation is preserved. The tissue and skin were closed in layers. […] Most allodynia was seen during the time period of 7-14 days after the surgery.
Intrathecal catheter installation: A PE10 catheter, stretched to a somewhat thinner diameter in the distal part, was introduced into the spinal canal (subarachnoid space) via a 21 G (gauge) cannula between the L5 and L6 lamina and advanced to the lumbar enlargement in rats. The proximal part was tunneled under the skin and led out on the upper dorsal region. The location of the catheter was verified by the injection of 6 μl (50 mg/ml) xylocalne, such that a transient, flaccid paralysis of the legs was produced, and by X-ray after administration of 10 μl iodine contrast medium (Astra, Sweden). The catheter could be kept for up to two weeks in animals.^[79]
as §1
Tactile allodynia test: In a transparent glass chamber (20×20 cm) with a mesh net floor, each animal was subjected to the tactile allodynia test. A positive response is when an innocuous tactile stimulus induces a brief paw withdrawal away from the stimulation, similar to a paw withdrawal due to heat. A set of von Frey filaments from 0.01 to 28 g (Stoelting Co., Wood Dale, Ill.) were applied to the mid-paw of the allodynic rats at 1 gram, and then progressing up or down. The filament was pressed against the plantar surface for 1 to 2 seconds until it bent. Subsequent applications were made with a higher or lower von Frey filament depending on the animal response. The testing always began with normal paws. If a filament induced a brief paw withdrawal of a paw without bending in three out of five tests, the size of the filament was recorded as eliciting a positive withdrawal threshold.^[80] Allodynia was considered to be present when a withdrawal threshold was evoked by a filament corresponding to 8 grams or less.
(§2) In rats with tactile allodynia (a withdrawal threshold with a filament below 8 g), an intrathecal catheter (PE 10) was installed and linked to an osmotic pump (Alzet) in a 37° C. water bath. Following a bolus injection of SCP-1 (30 nmol/kg, 10 μl), agrin siRNA (100 nM) was intrathecally administered continuously by the pump at a rate of 5 μl/1 hour for 4 hr. The animals were subjected to von Frey filament test every 15 min for 4 hr to determine whether the effects of SCP-1 on allodynia suppression are blocked by agrin siRNA. A control siRNA (nFsiRNA) was applied in the same way. The behavioral data was analyzed for agrin effects. Immediately after behavioral experiments, the animals were sacrificed and subjected to protein extraction of lumbar spinal cord, followed by Western-blot analysis as described above.
A blind test was designed for intrathecal drug evaluations. Five days after CCI, rats were subjected to tactile allodynia tests with von Frey filaments. If a filament corresponding to 8 grams or less evoked a withdrawal response on the rat paw (at least 3 responses out of 5 stimuli), the value was designated as the allodynia threshold. […] Either a drug (100 nmol in 10 μl saline) or vehicle (only 10 μl saline) was pre-warmed and intrathecally injected into the allodynic rats. Then the rats were assayed for changes in allodynic and hyperalgesic behavior, agrin gene expression, and agrin protein changes. In addition, distribution and amount of agrin in the dorsal horn were visualized using immunostaining of L5 as reported above in Example 7.

[5] = system: agrin protein; experiment: Western blot of agrin protein in L3-5 spinal cord; type: in vivo, rat
Description: Western blot for detecting protein expression of agrin: Agrin protein was analyzed from L3-5 spinal cord with Western blot as described below at times of 1 day, 3 days, and 7 days post-surgery. The changes in these proteins between sham-operated, nerve-injured (no drug), and nerve-injured (pre-emptive drug) groups were analyzed.
Agrin Protein Extraction: The rats were deeply anesthetized with isoflurane and decapitated. Spinal cord L3-5 was quickly removed and immediately placed into tissue lysis buffer (1 ml, Sigma Co., St. Louis, Mo.) that contained protein enzyme inhibitors (1:100, Halt, Pierce). The tissue was homogenized for 2 min and incubated on ice for 45 min. The sample was then centrifuged at 10,000×g for 30 min at 4° C. The supernatant was transferred to a new tube and centrifuged again for further clarifying. The concentration of the protein was determined by an Agilent's Bio-Rad protein chip (Agilent's 2100 bioanalyzer, Santa Clara, Calif.) and by the […] (reagents from Bio-Rad).
(§3) Western blot: Protein (20 μg) from each sample was mixed with 2× electrophoresis buffer and boiled for 5 min. The samples, along with a negative control, were loaded on 4-15% acrylamide tris-glycine SDS gels and electrophoresed in a cell (Bio-Rad) for approximately 1 hr. A Hybond-P polyvinylidene difluoride membrane (Bio-Rad, Hercules, Calif.) was used for transferring the protein in a mini-trans-blot transfer cell (Bio-Rad) for 2 hr. The membrane was then soaked in 2% milk for 1 hour and probed with monoclonal agrin antibody (Agr510 and Agr530, 1:5000, StressGen Biotechnologies Corp., Victoria, Canada) or β-actin antibody (1:5000) at 4° C. overnight with continual shaking. The following day goat anti-mouse secondary antibody conjugated to Alexa Fluor680 (1:5000, Molecular Probe) was added to the membrane and incubated for 1 hr at room temperature. The samples were washed three times with TBS buffer (Tris Buffered Saline, DAKO, Carpinteria, Calif.) between steps. The membrane was then scanned with an Odyssey (LI-COR) scanner and analyzed by Odyssey software (Li-Cor, Lincoln, Nebr.).
as §2, with “Immediately after behavioral experiments, the animals were sacrificed and subjected to protein extraction of lumbar spinal cord, followed by Western-blot analysis as described above.” left out

[6] = system: tactile allodynia in allodynic rats; experiment: Tactile allodynia test (von Frey filaments, paw withdrawal threshold) in CCI (Bennett model) rats; type: in vivo, rat
[7] = system: agrin mRNA; experiment: Rat lumbar spinal tissue culture, agrin mRNA by RT-PCR; type: cell-based; details: for agrin gene expression: 24 h
Description: (§4) Spinal cord tissue culture: The dorsal horn of fresh rat lumbar spinal cord was cut into 1-mm sections with a sharp blade under sterile conditions and maintained in culture in 12-well plates with DMEM and 10% FBS. After 2 days, 100 μM NMDA was added to 6 wells. The other 6 wells were used as controls. The culture was maintained for 24 hr, and the tissue subjected to RNA and protein extraction as well as RT-PCR and Western blotting to examine alterations of agrin gene and protein, as described in this Example.
Following peripheral nerve injury, large amounts of glutamate, aspartate, and substance P are released into the extracellular space and excite post-synaptic neurons. […] Exogenous NMDA and substance P (“SP”) were used to culture rat lumbar spinal tissue. The normal dorsal part of lumbar spinal cord was cut into 0.5 mm slices and cultured in DMEM plus 10% FBS serum. After culturing for 24 h, the slices were treated with 100 μM NMDA with or without 10 nM substance P. Control slices were not treated with NMDA or substance P. Each group (experimental and control) had six samples. At 6 h and 24 h after treatment, the slices were subjected to RNA and protein extraction. The extractions were then assayed for agrin mRNA and agrin protein as described above in Examples 1-3. Briefly, the agrin mRNA was assayed using RT-PCR using C-terminal agrin primers for 36 cycles; and the agrin protein was assayed using Western Blot.

[8] = system: agrin protein; experiment: Rat lumbar spinal tissue culture, agrin protein by Western blot; type: cell-based
Description: as §4
as §3, with “The following day goat anti-mouse secondary antibody conjugated to Alexa Fluor680 (1:5000, Molecular Probe) was added to the membrane and incubated for 1 hr at room temperature. The samples were washed three times with TBS buffer (Tris Buffered Saline, DAKO, Carpinteria, Calif.) between steps.” left out, “Nebr.). […]” for “Nebr.).”

[9] = system: rodents; details: rodents, dose of 6 mmol/kg; cited from earlier work
[10] = system: thermal hyperalgesia in allodynic rats; experiment: Thermal hyperalgesia test (paw withdrawal latency) in CCI (Bennett) rats; type: in vivo, rat

CNC1(c2ccccc2Cl)CCCCC1=O (stereo not drawn) [ketamine]
effect on hyperalgesia and allodynia [1]: suppress hyperalgesia and allodynia
doses at which the effects are seen [1]: only be seen at doses that induce ataxia

O=C(CNS(=O)(=O)c1ccccc1C(=O)O)Nc1ccc(O)cc1 [SCP-M1]
solubility compared with SCP-1 [2]: very similar to that of SCP-1
solubility in 45% 2-hydroxypropyl-α-cyclodextrin in saline ([2]; 45% cyclodextrin in saline, 10 mM solutions prepared): can dissolve them
solubility in water ([2]; water): do not dissolve readily in water
analgesic activity [3]: high analgesic activity
effect on paw-withdrawal threshold [4]: a faster response and a faster return to normal values for withdrawal thresholds than was seen in SCP-1

C[C@@H]([C@@H](O)c1ccc(O)cc1)N1CCC(O)(c2ccccc2)CC1 [(1S,2S)-1-(4-hydroxy-phynel)-2-(4-hydroxy-4-phenyl-piperidino)-1-propanol]
effect on hyperalgesia/allodynia ([1]; animal models of neuropathic pain): depressed hyperalgesia/allodynia at a dose devoid of adverse effects

agrin siRNA: siRNA for C-terminal agrin, position 5994; sense GCCCUCAAAGUCCUGUGAUtt (SEQ ID NO: 11), antisense SEQ ID NO: 12 (sense GCCCUCAAAGUCCUGUGAUTT; antisense AUCACAGGACUUUGAGGGCTT; chemistry not given here)
agrin protein level when injected with SCP-1 ([5]; siRNA plus SCP-1, allodynic rats, 2 h post-injection): did not return to normal levels
effect on the SCP-1 effect on withdrawal threshold ([6]; siRNA 100 nM intrathecally at 5 μl/hour continuously after bolus injection of SCP-1): antagonized the SCP-1 and inhibited the effect on withdrawal threshold

SP: substance P, increases NMDA receptor excitability by removing magnesium blocking (RPKPQQFFGLM-NH2; ends and bridges not checked; UniProt P20366 58-68, looked up)
agrin gene expression ([7]; 10 nM substance P added to 100 μM NMDA): enhanced the down-regulation by NMDA

C[C@]12N[C@H](Cc3ccccc31)c1ccccc12 [MK801]
effect on hyperalgesia and allodynia [1]: suppress hyperalgesia and allodynia
doses at which the effects are seen [1]: only be seen at doses that induce ataxia
effect on agrin protein decrease from NMDA receptor over-stimulation ([8]; 20 μM MK801 with either NMDA alone or NMDA plus substance P, 24 hr): blocked agrin decrease

CN[C@H](CC(=O)O)C(=O)O [NMDA]
agrin mRNA ([7]; 100 μM NMDA with or without SP, 6 h): No decrease in agrin mRNA
agrin gene expression ([7]; 100 μM NMDA, compared to controls without NMDA): visually less
agrin protein ([8]; 100 μM NMDA, 24 h): a decrease in agrin

CC(=O)Nc1ccc(O)cc1 [APAP, acetaminophen, reference compound]
lethality [9]: killed all the animals
agrin protein ([5]; pre-emptive intrathecal injection prior to CCI, 3 and 7 days): did not prevent the drop in agrin protein
effect on tactile allodynia (paw withdrawal threshold) ([6]; pre-emptive intrathecal 100 nmol in 10 μl saline immediately prior to CCI, 0, 3, 7 days): showed an effect similar to SCP-1
effect on paw withdrawal threshold at 7 days ([6]; pre-emptive intrathecal 100 nmol prior to CCI, 7 days after injury): sharply reduced
increase in paw-withdrawal latency (thermal hyperalgesia) ([10]; intrathecal 100 nmol in 10 μl, CCI (Bennett) rat model): a similar effect on latency
effect on paw-withdrawal latency at 120 min post injection ([10]; intrathecal 100 nmol, 120 min): dropped to the initial latency value
time after injection at which the effect began to diminish ([4]; intrathecal 100 nmol): 90 min
duration of effect on withdrawal threshold ([4]; intrathecal 100 nmol in 10 μl): short duration
effect on paw-withdrawal threshold [4]: a less robust effect on the withdrawal threshold
maximum withdrawal threshold ([4]; intrathecal, same dose and volume (100 nmol in 10 μl)): about 22 g
